Reference: PMC10461229 (Journal of Medicinal Chemistry, 2023)
Like-named read-outs stand apart in the source and are kept apart here.

Columns and labels:
[1] = test system: wild-type (WT) Mtb Erdman; test: microbe, parasite or virus in culture; type: cell-based, Mycobacterium tuberculosis; settings: read-out: MABA mean IC50 ± SD
CYP3A4 = biological target: T1, CYP3A4 (Homo sapiens, UniProt P08684); test: CYP3A4 inhibition in human liver microsomes; type: in vitro ADME; settings: HLM
T1 construct: from tissue; host or cells: human liver microsomes
T1 sequence (P08684 whole entry): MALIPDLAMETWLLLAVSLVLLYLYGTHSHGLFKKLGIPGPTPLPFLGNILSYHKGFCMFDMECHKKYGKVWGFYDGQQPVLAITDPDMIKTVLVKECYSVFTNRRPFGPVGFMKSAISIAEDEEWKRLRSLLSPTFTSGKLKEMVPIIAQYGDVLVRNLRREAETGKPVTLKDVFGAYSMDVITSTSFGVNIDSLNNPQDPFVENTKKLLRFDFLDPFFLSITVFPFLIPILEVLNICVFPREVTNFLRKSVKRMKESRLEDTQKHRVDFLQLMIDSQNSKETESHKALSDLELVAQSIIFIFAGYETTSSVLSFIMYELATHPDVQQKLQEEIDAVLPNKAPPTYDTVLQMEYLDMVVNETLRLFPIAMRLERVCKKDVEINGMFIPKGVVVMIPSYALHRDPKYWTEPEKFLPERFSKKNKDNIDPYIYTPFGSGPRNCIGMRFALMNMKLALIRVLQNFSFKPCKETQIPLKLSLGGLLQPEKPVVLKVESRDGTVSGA

in vitro = settings: human, Caco-2, pH 7.4
CYP2C9 = CYP2C9 (Homo sapiens, UniProt P11712); test: CYP2C9 inhibition in human liver microsomes; settings: for % 4 OH-diclofenac activity: HLM
Sequence of CYP2C9 (P11712 whole entry): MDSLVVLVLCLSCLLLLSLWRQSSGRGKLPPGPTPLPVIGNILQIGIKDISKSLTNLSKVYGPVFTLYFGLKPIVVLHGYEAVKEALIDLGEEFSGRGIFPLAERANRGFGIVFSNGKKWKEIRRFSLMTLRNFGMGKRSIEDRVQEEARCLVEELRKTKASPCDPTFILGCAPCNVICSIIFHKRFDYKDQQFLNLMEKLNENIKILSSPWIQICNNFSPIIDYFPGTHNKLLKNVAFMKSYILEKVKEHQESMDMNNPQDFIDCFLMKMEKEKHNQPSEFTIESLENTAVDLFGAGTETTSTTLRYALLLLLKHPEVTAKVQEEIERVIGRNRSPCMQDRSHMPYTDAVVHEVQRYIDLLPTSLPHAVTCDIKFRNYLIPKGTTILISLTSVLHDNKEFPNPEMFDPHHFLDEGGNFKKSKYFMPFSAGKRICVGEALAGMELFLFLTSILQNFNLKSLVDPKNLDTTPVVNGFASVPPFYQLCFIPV

Mtb biofilm formation = test: microbe, parasite or virus in culture; type: cell-based; settings: Mycobacterium tuberculosis, 504 h, read-out: Biofilm inhibition IC50
Mtb katG^FS = type: cell-based, Mycobacterium tuberculosis
[2] = test system: H37Rv-GFP Mtb in murine RAW 264.7 macrophages; type: cell-based, Mycobacterium tuberculosis
[3] = test system: murine RAW 264.7 macrophages; test: Cytotoxicity assay on murine macrophages; type: cell-based, mouse; settings: 5 days, total cell number vs DMSO 1%
Procedure: Mouse macrophage RAW 264.7 cells (ATCC # TIB-71) were maintained in RPMI-1640 + GlutaMAX containing 10% heat-inactivated fetal bovine serum (FBS, 10270106, Gibco). Macrophages were harvested using Versene (15040033, LifeTechnologies).
For assay plate preparation, the lead compounds were diluted in DMSO (Sigma-Aldrich) to 10 mg/mL and dispensed in Echo-qualified 384-well low dead volume source plates using the Echo 550 Series Liquid Handler (Labcyte). The compounds were transferred to 384-well clear-bottom polystyrene assay plates (781091, Greiner Bio-One) using acoustic liquid handling technology. All samples were backfilled with DMSO.
The cellular suspension (50 μL containing 20,000 cells) was added to the 384-well assay plate and incubated for 5 days at 37 °C, 5% CO2. Macrophages were then stained with SYTO 60 dye (S11342, Molecular probes), followed by image acquisition and data analysis. Confocal images were recorded on an automated high-content fluorescence microscope (InCell 6500, Cytiva). A series of four pictures of each well were taken, and each image was then analyzed using the Columbus system to infer the total number of cells. Dose–response plots were generated for each compound using GraphPad Prism software.

Mtb Erdman = type: cell-based, Mycobacterium tuberculosis
Calu-3 cells = settings: for Calu-3 LD50: 72 h, CellTiter-Glo, 50% decrease in cellular ATP, IMD salts; for Therapeutic index, LD50 in Calu-3 / MABA IC50: 72 h treatment, CTG assay
BEAS-2B = settings: for BEAS-2B LD50: 48 h, MTT; for Therapeutic index, LD50 in BEAS-2B / MABA IC50: 48 h treatment, MTT assay
IMR-90 = settings: for IMR-90 LD50: 48 h, MTT
HEK 293 = settings: for HEK 293 LD50: 48 h, MTT; for Therapeutic index, LD50 in HEK 293 / MABA IC50: 48 h treatment, MTT assay
Caco-2 cells = settings: membrane integrity control, 5 μM; cited from earlier work
[4] = Mycobacterium tuberculosis, ERDMAN

With `CC(C)(C)c1ccc(-c2nnc(SCc3cc(=O)n4c(c3C3CC3)SCC4C(=O)O)o2)cc1` (racemic) [Compound 8f, (±) 7-(((5-(4-(tert-Butyl)phenyl)-1,3,4-oxadiazol-2-yl)thio)methyl)-8-cyclopropyl-5-oxo-2,3-dihydro-5H-thiazolo[3,2-a]pyridine-3-carboxylic Acid] the IC50 [1, 4] was 6.2 µM, the IC50 [1] was 6.19 ± 0.67 µM and the “% 1OH-midazolam activity” value (CYP3A4; 1 μM compound) was 108 ± 4.1%. For the same compound, the “% 6OH-testosterone activity” value (CYP3A4; 1 μM compound) was 98 ± 4.0%, the “% 1OH-midazolam activity” value (CYP3A4; 10 μM compound) was 117 ± 1.4% and the “% 6OH-testosterone activity” value (CYP3A4; 10 μM compound) was 94 ± 5.8%. For the same compound, the “% 1OH-midazolam activity” value (CYP3A4; 100 μM compound) was 84 ± 5.0%, the “% 6OH-testosterone activity” value (CYP3A4; 100 μM compound) was 60 ± 1.9% and the Papp A→B (in vitro) was 3.3 ×10⁻⁶ cm/s. The IC50 (CYP2C9) was 10 to 100 µM, the “% 4 OH-diclofenac activity” value (CYP2C9; 1 μM compound) was 100 ± 2.7% and the “% 4 OH-diclofenac activity” value (CYP2C9; 10 μM compound) was 93 ± 6.7%. For the same compound, the “% 4 OH-diclofenac activity” value (CYP2C9; 100 μM compound) was 31 ± 3.6%.

In the case of `CC(C)(C)c1ccc(-n2cc(-c3cc(=O)n4c(c3C3CC3)SCC4C(=O)O)nn2)cc1` (racemic) [Compound 15d, (±) 7-(1-(4-(tert-Butyl)phenyl)-1H-1,2,3-triazol-4-yl)-8-cyclopropyl-5-oxo-2,3-dihydro-5H-thiazolo[3,2-a]pyridine-3-carboxylic Acid], the IC50 [1, 4] is reported as 5.67 ± 0.82 µM, the “% 1OH-midazolam activity” value (CYP3A4; 1 μM compound) is reported as 102 ± 1.4% and the “% 6OH-testosterone activity” value (CYP3A4; 1 μM compound) is reported as 105 ± 1.0%. The “% 1OH-midazolam activity” value (CYP3A4; 10 μM compound) was 95 ± 2.7%, the “% 6OH-testosterone activity” value (CYP3A4; 10 μM compound) was 101 ± 3.9% and the “% 1OH-midazolam activity” value (CYP3A4; 100 μM compound) was 67 ± 1.5%. The “% 6OH-testosterone activity” value (CYP3A4; 100 μM compound) was 75 ± 1.9%, the Papp A→B at 2 µM (in vitro) was 0.88 ×10⁻⁶ cm/s and the IC50 (CYP2C9) was 1 to 10 µM. For the same compound, the “% 4 OH-diclofenac activity” value (CYP2C9; 1 μM compound) was 83 ± 4.6%, the “% 4 OH-diclofenac activity” value (CYP2C9; 10 μM compound) was 32.9 ± 1.0% and the “% 4 OH-diclofenac activity” value (CYP2C9; 100 μM compound) was 2.61 ± 0.29%.

`O=C(O)C1CSc2c(C3CC3)c(-c3cc(-c4ccc5ccccc5c4)no3)cc(=O)n21` (racemic) [Compound 17h, (±) 8-Cyclopropyl-7-(3-(naphthalen-2-yl)isoxazol-5-yl)-5-oxo-2,3-dihydro-5H-thiazolo[3,2-a]pyridine-3-carboxylic Acid] gave an IC50 [1, 4] of 0.703 µM, an IC50 [1] of 0.7 ± 0.05 µM and an IC50 (Mtb biofilm formation) of 3.47 ± 1.21 µM. For the same compound, the “Mtb katG^FS CFU after 13 days, combination with INH” value (Mtb katG^FS) was “below the input dose”, the “Mtb katG^FS CFU after 13 days, compound alone vs control” value (Mtb katG^FS) was “no difference in CFU” and the “inhibition of intracellular Mtb replication in macrophages” value [2] was “inhibited intracellular mycobacteria at concentrations lower than C10”. For the same compound, the “cytotoxicity for uninfected murine RAW 264.7 macrophages” value [3] was “not cytotoxic”, the “inhibition of OD600 of Mtb cultures in the presence of tyloxapol” value (Mtb Erdman) was “neither 17h nor 17j inhibited the OD600 of Mtb cultures” and the “Calu-3 LD50” value (Calu-3 cells) was greater than 250 µM. The “Therapeutic index, LD50 in Calu-3 / MABA IC50” value (Calu-3 cells) was greater than 355, the “BEAS-2B LD50” value (BEAS-2B) was 143.1 µM and the “Therapeutic index, LD50 in BEAS-2B / MABA IC50” value (BEAS-2B) was 203.5. For the same compound, the “IMR-90 LD50” value (IMR-90) was 122.5 µM, the “HEK 293 LD50” value (HEK 293) was 101.6 µM and the “Therapeutic index, LD50 in HEK 293 / MABA IC50” value (HEK 293) was 144.5.

Compound `O=C(O)C1CSc2c(C3CC3)c(-c3cc(-c4cccc5ccccc45)on3)cc(=O)n21` (racemic) [Compound 19a, (±) 8-Cyclopropyl-7-(5-(naphthalen-1-yl)isoxazol-3-yl)-5-oxo-2,3-dihydro-5H-thiazolo[3,2-a]pyridine-3-carboxylic Acid] has an IC50 [1, 4] of 3.9 ± 1.43 µM.

`O=C(O)C1CSc2c(C3CC3)c(-c3cc(-c4cccc(C(F)(F)F)c4)on3)cc(=O)n21` (racemic) [Compound 19b, (±) 8-Cyclopropyl-5-oxo-7-(5-(3-(trifluoromethyl)phenyl)isoxazol-3-yl)-2,3-dihydro-5H-thiazolo[3,2-a]pyridine-3-carboxylic Acid] gave an IC50 [1, 4] of 5.09 ± 1.3 µM.

With `O=C(O)C1CSc2c(C3CC3)c(Cc3cccc4ccccc34)cc(=O)n21` (stereo not shown) [Compound C10, reference compound] the IC50 [1, 4] was 14.4 µM, the IC50 [1] was 14.4 µM and the IC50 (Mtb biofilm formation) was 8.28 ± 3.23 µM. For the same compound, the “Mtb katG^FS CFU after 13 days, combination with INH” value (Mtb katG^FS) was “did not inhibit the survival of Mtb katG^FS beyond the effect of INH alone”, the “Mtb katG^FS CFU after 13 days, compound alone vs control” value (Mtb katG^FS) was “no difference in CFU” and the “cytotoxicity for uninfected murine RAW 264.7 macrophages” value [3] was “not cytotoxic”. For the same compound, the “Calu-3 LD50” value (Calu-3 cells) was 160.4 µM, the “Therapeutic index, LD50 in Calu-3 / MABA IC50” value (Calu-3 cells) was 11.1 and the “BEAS-2B LD50” value (BEAS-2B) was 146.2 µM. For the same compound, the “Therapeutic index, LD50 in BEAS-2B / MABA IC50” value (BEAS-2B) was 10.1, the “IMR-90 LD50” value (IMR-90) was 147.1 µM and the “Therapeutic index, LD50 in IMR-90 / MABA IC50” value (IMR-90; 48 h treatment, MTT assay) was 10.1. For the same compound, the “HEK 293 LD50” value (HEK 293) was 151.7 µM and the “Therapeutic index, LD50 in HEK 293 / MABA IC50” value (HEK 293) was 10.5.

With `NNC(=O)c1ccncc1` [INH, isoniazid] the “surviving Mtb katG^FS after 13 days of treatment” value (Mtb katG^FS) was 8.09 × 10^8 CFU/mL.

For `C[C@H](N[C@@H](CCc1ccccc1)C(=O)O)C(=O)N1CCC[C@H]1C(=O)O` [enalaprilat], the “Papp of enalaprilat for a tight monolayer” value (Caco-2 cells) is given as < 1 × 10^–6 cm/s.
